Values of other authors in patent publication US10792293B2, “Topical nanodrug formulation” (priority 2015, dated 2020).

For `CC(=O)S[C@@H]1CC2=CC(=O)CC[C@]2(C)[C@H]2CC[C@@]3(C)[C@@H](CC[C@@]34CCC(=O)O4)[C@H]12` [Spironolactone, spironolactone], the solubility in water is given as “about 2.8 mg/100 ml”.
